Experiments:
[1] = system: inflammatory cells in the bronchial-alveolar liquid; assay type: in vivo, C57B1/6J mice; settings: for Number PMNs in bronchial-alveolar liquid / Total number infl. cells in bronchial-alveolar liquid: substance alone, aerosol on day 0, 2 and 7, 24 h after final treatment (day 8), n=3
Protocol: (§1) On day 0, 2 and 7, two groups C75Bl/6J mice received 30 minutes' treatment with an aerosol (in an atomizing chamber as described in example 1) comprising (i) vehicle (phosphate-buffered physiological salt solution), (ii) N—AcPGP (0.4 mg/ml) or (iii) N—AcPGP (0.4 mg/ml) and 4-RTR (1 mg/ml). 30 minutes prior to the aerosol, the mice of group (i) and (ii) received intranasal vehicle and the mice of group (iii), 4RTR (1 mg/ml). […] (see Table III).

[2] = system: PGP-induced PMN influx in the mouse lung; test: PGP-induced PMN influx in the mouse lung (lung-wash cell counts); assay type: in vivo, Balb/c mice; settings: for Eos in lung-wash liquid / Monos in lung-wash liquid / Neutros in lung-wash liquid / Total cells in lung-wash liquid: PBS pre-treatment, atomization of the substance (10^-3 M, 30 min), 5 h after onset, ± SEM; for Influx of neutrophilic and eosinophilic granulocytes in the lungs: atomization of the substance
Protocol: Solutions were prepared of N—Ac-PGP (0.36 mg/ml; 10^−3 M) and N-methyl-PGP (0.32 mg/ml; 10^−3 M) in phosphate-buffered physiological salt (PBS). In an atomizing chamber, 6-8 weeks old Balb/c mice (groups of 4 mice) were subjected for 30 minutes to either N-acetyl-PGP or N-methyl-PGP. Control mice only received PBS. One hour prior to subjection in the atomizing chamber and one hour after the start of subjection each mouse received 50 μl of 1 mg/ml 4RTR. The treatment is outlined in the Table I below.
5 Hours after the onset of subjection the mice were sacrificed by administering an overdose of Nembutal. After the application of a tracheal canula the lungs were washed with 4 ml PBS. The lung-wash liquid was centrifuged (5 min.; 4° C.; 580 g) and the cell pellet was taken up in 150 μl PBS. The cells were counted under the microscope. To distinguish between neutrophilic and eosinophilic granulocytes and mononuclear cells (haematoxylin/eosin dye, H/E dye: Diff-Quick, Merz & Dade, A. G. Dübingen, Switzerland), the cytospin technique was applied (Buckley, T. L. and Nijkamp, F. P., “Airways hyperreactivity and cellular accumulation in a delayed-type hypersensitivity reaction in the mouse: modulation by capsaicin-sensitive nerves”. Am. J. Respir. Crit. Care Med. 149: 400-407 (1994)).

[3] = system: alveolar dilatation (lung emphysema); test: Lung emphysema induced by N-AcPGP: mean linear intercept (Lm); assay type: in vivo, C75Bl/6J mice; settings: N-AcPGP aerosol day 0, 2, 7; lungs on day 21; FIG. 1
Protocol: as §1
On day 21 the mice of the second group (which on day 0, 2, and 7 were treated in the same manner as the mice of the first group), were sacrificed by means of an overdose of anaesthetic (Nembutal) and the lungs were isolated and fixed by filling the lungs with Carnoy's fixative under a liquid pressure of 25 cm. The lungs were prepared for histological analysis. The mean linear intercept (Lm), indicative for alveolar dilatation, was calculated by placing a grid over the illustrations of 5 separate fields (300× magnification) per mouse lung. The total length of the lines was divided by the number of intercepts, resulting in the Lm, providing a measure for the average size of the bronchial volume of the lung.

Substance	Number PMNs in bronchial-alveolar liquid [1]	Total number infl. cells in bronchial-alveolar liquid [1]	Eos in lung-wash liquid [2]	Monos in lung-wash liquid [2]	Neutros in lung-wash liquid [2]	Total cells in lung-wash liquid [2]	Influx of neutrophilic and eosinophilic granulocytes in the lungs [2]	Increase of the total number of inflammatory cells in the bronchial-alveolar washing liquid in comparison with the vehicle control ([1]; N-AcPGP 0.4 mg/ml aerosol day 0, 2, 7, day 8) [fold]	Mean linear intercept (Lm), indicative for alveolar dilatation [3]
FMLP	10.7± 3 ×10^5	61 ± 5 ×10^5							
N-acetyl-Pro-Gly-Pro [N-AcPGP]	11.7 ± 0.8 ×10^5	55 ± 1 ×10^5	1.1 ± 0.6 ×10^4 cells/ml	28.3 ± 8.6 ×10^4 cells/ml	20.1 ± 7.5 ×10^4 cells/ml	49.5 ± 3.1 ×10^4 cells/ml	results in the influx of neutrophilic and eosinophilic granulocytes in the lungs	2	significant increase
N-methyl-Pro-Gly-Pro [N-methylPGP]			0.2 ± 0.1 ×10^4 cells/ml	33.9 ± 3.4 ×10^4 cells/ml	11.9 ± 3.6 ×10^4 cells/ml	46.1 ± 3.2 ×10^4 cells/ml	results in the influx of neutrophilic and eosinophilic granulocytes in the lungs		

Reference: US7410806B2, “Compound for inhibiting the influx of polymorphonuclear leukocytes (PMNs) in a tissue, its selection, pharmaceutical compositions and use” (Fornix Biosciences N.V., priority 1999, dated 2008)
